{
  "source": "ChEMBL document CHEMBL1201862",
  "about": "“PubChem BioAssay data set” (2004)",
  "key": {"[1]": {"molecular_target": "Fructose-bisphosphate aldolase (Mycobacterium tuberculosis, UniProt P9WQA3)", "assay": "Fluorescence-based biochemical high throughput dose response assay for inhibitors of the fructose-bisphosphate aldolase (FBA) of M. tuberculosis.", "type": "functional"}, "Caspase-6": {"molecular_target": "Caspase-6 (Homo sapiens, UniProt P55212)", "assay": "inhibition of CASP6 peptide cleavage – biochemical, VEID-R110 fluorescence, cherry-pick, dose response (AID 720632)"}, "[2]": {"assay": "viability loss in THP-1 monocytes – THP-1 cells, cytotoxicity control for Vif-APOBEC3G degradation inhibitor project, dose response (AID 1117359)", "type": "functional", "details": "THP-1"}, "Caspase-7": {"molecular_target": "Caspase-7 (Homo sapiens, UniProt P55210)", "sequence (P55210 24-198 limits assumed)": "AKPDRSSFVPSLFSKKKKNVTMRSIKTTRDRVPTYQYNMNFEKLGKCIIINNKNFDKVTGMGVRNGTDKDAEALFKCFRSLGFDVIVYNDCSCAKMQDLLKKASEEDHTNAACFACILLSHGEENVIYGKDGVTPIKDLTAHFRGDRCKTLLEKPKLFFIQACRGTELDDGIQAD", "sequence (P55210 207-303 limits assumed)": "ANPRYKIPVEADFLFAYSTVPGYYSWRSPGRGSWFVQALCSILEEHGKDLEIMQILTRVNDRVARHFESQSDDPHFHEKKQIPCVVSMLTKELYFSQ", "assay": "caspase-7 enzyme inhibition, selectivity check – biochemical, DEVD-R110 fluorescence, cherry-pick, selectivity assay for caspase-6 inhibitor project, dose response (AID 743295)", "type": "functional"}, "Caspase-8": {"molecular_target": "Caspase-8 (Homo sapiens, UniProt Q14790)", "assay": "inhibitors of purified CASP8 protease – biochemical, Z-IETD-R110 fluorescence, cherry-picked samples, selectivity assay for caspase-6 inhibitor project, dose response (AID 743294)"}, "Protein Tat": {"molecular_target": "Protein Tat (Human immunodeficiency virus type 1 group M subtype B (isolate HXB2)(HIV-1), UniProt P04608)", "sequence (P04608 whole entry)": "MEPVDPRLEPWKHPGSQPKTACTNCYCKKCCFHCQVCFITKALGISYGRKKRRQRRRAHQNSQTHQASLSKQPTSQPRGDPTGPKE", "type": "functional"}, "Beta-galactosidase": {"molecular_target": "Beta-galactosidase (Escherichia coli, UniProt Q8VNN2)", "sequence (Q8VNN2 whole entry)": "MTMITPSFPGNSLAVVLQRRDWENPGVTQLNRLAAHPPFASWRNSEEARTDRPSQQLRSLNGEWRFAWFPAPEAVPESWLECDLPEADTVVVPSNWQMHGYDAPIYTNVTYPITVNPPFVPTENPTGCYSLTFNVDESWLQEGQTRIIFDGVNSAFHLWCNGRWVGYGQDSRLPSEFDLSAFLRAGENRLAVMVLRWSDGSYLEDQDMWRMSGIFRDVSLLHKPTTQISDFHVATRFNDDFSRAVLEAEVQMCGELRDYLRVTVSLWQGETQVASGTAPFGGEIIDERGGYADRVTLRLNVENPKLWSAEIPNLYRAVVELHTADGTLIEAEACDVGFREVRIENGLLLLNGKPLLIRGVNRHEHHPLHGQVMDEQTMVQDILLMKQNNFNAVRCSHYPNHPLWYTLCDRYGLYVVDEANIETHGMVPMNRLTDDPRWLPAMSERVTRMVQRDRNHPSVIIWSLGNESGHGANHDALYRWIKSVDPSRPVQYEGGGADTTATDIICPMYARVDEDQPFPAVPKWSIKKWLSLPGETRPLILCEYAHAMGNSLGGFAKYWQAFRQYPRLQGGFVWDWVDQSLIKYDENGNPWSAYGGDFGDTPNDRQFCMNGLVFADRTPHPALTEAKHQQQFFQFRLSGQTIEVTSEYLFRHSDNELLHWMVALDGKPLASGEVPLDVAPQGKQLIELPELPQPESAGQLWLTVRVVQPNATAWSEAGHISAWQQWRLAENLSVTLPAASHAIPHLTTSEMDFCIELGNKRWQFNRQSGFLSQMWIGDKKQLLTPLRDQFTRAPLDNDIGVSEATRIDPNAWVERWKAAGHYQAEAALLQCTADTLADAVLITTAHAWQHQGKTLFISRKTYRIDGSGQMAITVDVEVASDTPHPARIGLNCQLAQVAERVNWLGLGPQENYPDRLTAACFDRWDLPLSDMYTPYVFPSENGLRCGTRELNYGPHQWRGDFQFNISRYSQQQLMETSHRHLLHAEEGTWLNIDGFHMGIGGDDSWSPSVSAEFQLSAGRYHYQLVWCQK", "assay": "Dose response counterscreen for EBI2 assay utilizing the enzyme, b-galactosidase.", "type": "functional"}, "[3]": {"assay": "viability loss in HEK293T cells – cell-based, cherry-picks, cytotoxicity control for HIV Vif inhibitor project, dose response (AID 652208)", "type": "functional"}, "Melanocortin receptor 4": {"molecular_target": "Melanocortin receptor 4 (Homo sapiens, UniProt P32245)", "sequence (P32245 whole entry)": "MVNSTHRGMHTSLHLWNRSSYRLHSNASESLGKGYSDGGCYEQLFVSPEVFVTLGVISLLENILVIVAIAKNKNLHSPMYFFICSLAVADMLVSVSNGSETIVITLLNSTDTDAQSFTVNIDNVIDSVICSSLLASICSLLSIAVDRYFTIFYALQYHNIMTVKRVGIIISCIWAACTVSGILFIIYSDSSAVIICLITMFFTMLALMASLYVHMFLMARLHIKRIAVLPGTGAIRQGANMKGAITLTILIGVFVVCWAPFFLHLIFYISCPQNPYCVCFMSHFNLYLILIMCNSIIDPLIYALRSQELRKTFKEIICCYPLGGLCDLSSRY", "type": "functional, cell-based"}, "Fatty acid synthase [4]": {"molecular_target": "T1, Fatty acid synthase (Homo sapiens, UniProt P49327)", "T1 sequence (P49327 whole entry)": "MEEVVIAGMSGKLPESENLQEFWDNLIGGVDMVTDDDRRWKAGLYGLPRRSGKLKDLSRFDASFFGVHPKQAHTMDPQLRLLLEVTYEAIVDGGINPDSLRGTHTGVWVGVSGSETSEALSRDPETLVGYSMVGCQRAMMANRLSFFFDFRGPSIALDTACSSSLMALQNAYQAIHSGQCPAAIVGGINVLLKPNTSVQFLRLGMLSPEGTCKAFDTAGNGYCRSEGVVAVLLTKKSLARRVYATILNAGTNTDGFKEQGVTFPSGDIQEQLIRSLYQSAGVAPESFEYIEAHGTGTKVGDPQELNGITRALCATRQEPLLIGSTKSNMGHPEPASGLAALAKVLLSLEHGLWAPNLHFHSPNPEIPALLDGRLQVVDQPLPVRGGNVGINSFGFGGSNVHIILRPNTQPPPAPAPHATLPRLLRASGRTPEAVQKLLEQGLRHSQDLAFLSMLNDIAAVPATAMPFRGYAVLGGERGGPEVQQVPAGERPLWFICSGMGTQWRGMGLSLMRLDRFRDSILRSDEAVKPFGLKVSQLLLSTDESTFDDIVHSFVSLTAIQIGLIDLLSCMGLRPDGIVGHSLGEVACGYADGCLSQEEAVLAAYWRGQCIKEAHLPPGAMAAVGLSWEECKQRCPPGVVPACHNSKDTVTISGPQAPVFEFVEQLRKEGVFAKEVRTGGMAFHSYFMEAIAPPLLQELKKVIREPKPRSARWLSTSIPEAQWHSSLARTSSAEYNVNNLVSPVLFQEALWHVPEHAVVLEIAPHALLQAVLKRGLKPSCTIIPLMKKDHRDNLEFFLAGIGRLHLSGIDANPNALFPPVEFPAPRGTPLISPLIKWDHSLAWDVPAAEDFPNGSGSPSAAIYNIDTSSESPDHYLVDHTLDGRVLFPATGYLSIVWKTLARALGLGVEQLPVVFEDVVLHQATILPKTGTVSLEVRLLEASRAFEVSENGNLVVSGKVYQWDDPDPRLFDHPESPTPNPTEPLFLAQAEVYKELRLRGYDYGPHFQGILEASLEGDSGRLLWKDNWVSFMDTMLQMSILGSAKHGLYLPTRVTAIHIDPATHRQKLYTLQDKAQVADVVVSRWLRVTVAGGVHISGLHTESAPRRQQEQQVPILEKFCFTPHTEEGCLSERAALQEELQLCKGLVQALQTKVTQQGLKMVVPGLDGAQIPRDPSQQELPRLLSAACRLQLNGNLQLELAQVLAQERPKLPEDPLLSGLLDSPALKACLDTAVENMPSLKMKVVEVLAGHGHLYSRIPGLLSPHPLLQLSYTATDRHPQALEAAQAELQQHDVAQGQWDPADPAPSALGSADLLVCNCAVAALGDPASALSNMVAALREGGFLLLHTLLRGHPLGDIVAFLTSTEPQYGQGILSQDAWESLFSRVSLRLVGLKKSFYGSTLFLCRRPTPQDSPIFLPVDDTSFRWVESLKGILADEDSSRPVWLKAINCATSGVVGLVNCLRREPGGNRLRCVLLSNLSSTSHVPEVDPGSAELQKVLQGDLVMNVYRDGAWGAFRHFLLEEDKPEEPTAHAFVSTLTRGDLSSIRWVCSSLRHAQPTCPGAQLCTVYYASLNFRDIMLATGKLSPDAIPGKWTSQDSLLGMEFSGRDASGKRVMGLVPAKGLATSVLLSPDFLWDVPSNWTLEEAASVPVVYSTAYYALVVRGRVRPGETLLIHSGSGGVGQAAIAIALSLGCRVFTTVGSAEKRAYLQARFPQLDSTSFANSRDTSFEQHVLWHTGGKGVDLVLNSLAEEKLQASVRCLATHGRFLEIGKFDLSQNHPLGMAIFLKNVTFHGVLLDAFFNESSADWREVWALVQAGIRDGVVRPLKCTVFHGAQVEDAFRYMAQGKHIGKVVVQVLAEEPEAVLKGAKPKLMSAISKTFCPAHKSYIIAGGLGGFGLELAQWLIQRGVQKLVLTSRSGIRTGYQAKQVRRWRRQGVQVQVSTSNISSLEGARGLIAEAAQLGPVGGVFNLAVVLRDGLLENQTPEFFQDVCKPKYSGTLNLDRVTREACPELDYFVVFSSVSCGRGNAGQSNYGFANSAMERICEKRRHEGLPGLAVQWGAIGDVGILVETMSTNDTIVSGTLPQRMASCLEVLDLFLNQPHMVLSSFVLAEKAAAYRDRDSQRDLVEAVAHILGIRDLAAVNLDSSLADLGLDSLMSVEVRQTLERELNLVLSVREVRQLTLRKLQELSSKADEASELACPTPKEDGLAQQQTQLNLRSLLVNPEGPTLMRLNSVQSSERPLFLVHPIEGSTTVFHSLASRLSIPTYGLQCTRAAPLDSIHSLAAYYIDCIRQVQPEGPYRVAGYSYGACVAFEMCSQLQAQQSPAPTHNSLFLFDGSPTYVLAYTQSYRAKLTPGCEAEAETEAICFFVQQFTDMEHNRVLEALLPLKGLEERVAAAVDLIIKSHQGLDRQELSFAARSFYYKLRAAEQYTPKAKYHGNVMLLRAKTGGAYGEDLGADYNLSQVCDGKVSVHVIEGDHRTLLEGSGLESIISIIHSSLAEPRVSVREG", "assay": "inhibition of human FAS-TE enzyme activity – biochemical, kinetic fluorescence intensity, dose response (AID 624326);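 also: rate of fluorescence rise from hydrolysis of a fluorogenic O-methyl fluorescein ester substrate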", "type": "functional"}, "Albumin": {"molecular_target": "Albumin (Bos taurus, UniProt P02769)", "sequence (P02769 whole entry)": "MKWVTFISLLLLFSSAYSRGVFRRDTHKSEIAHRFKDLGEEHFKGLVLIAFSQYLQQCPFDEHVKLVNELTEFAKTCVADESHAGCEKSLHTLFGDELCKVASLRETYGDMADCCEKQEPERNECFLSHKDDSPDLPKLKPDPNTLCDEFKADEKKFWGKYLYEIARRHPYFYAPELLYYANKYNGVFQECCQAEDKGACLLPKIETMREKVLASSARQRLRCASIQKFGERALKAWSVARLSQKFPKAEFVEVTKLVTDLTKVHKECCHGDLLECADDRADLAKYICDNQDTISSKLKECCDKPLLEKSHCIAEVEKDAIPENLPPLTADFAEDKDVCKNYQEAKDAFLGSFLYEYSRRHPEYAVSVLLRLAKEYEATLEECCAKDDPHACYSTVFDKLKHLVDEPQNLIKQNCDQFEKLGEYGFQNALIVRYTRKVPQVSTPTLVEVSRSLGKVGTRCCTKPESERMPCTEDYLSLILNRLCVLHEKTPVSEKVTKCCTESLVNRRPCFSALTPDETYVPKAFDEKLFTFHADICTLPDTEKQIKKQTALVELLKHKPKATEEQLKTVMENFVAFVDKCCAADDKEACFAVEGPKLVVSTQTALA", "assay": "Counterscreen for inhibitors of T-cell receptor (TCR)-CD3 interaction: Fluorescence-based biochemical high throughput dose response assay to identify inhibitors of T-cell receptor (TCR)-CD3 interaction using a TAMRA-labeled BSA probe.", "type": "functional"}, "Fatty acid synthase [5]": {"molecular_target": "T1, Fatty acid synthase", "assay": "inhibition of human FAS-TE enzyme activity – biochemical, endpoint fluorescence intensity, uHTS hits, dose response (AID 624327);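 also: fluorescence from hydrolysis of an O-methyl fluorescein acyl ester substrate by the enzyme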", "type": "functional"}, "[6]": {"assay": "activation of miR-122 Renilla sensor silencing – cell-based, Huh7 psiCHECK-miR122, Renilla luciferase, cherry-picked, dose response (AID 651956);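 also: huh7 hepatoma cells stably carrying a psiCHECK-2 miR-122 sensor plasmid; renilla luciferase signal reporting endogenous miR-122 activity after 48 h compound exposure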", "type": "functional"}, "[7]": {"assay": "general mammalian cell viability loss – activator set, cherry-pick, cytotoxicity control for miR-122 modulator project, dose response (AID 720690)", "type": "functional, cell-based"}, "Paired box protein Pax-8": {"molecular_target": "Paired box protein Pax-8 (Homo sapiens, UniProt Q06710)", "assay": "PAX8 transcriptional activity inhibition in RMG-I – RMG-I cells, luciferase, cherry-pick, dose response (AID 687027);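 also: luciferase reporter driven by Pax8 target thyroperoxidase promoter measured by SteadyGlo luminescence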", "type": "functional, cell-based"}},
  "note": "Active and inactive are the calls of the source.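 For EC50 in this document: Cell-based assay with luminescence read-out, confirmatory dose-response testing for agonist activity of biased ligands at MC4R; human U2OS cells with tagged receptor and beta-arrestin; potency of agonists that increase receptor coupling to beta-arrestin.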",
  "data": [
    {"smiles": "COc1ccc2nc(C)cc(C(=O)O)c2c1", "values": [
      {"measurement": "IC50", "setting": "[1]", "value": "1.16 µM (active)"}
    ]},
    {"smiles": "O=C(c1cccc(-n2cccc2)c1)N1CCN(S(=O)(=O)c2ccccc2)CC1", "values": [
      {"measurement": "AC50", "setting": "Caspase-6", "value": "433 nM (active)"},
      {"measurement": "CC50", "setting": "[2]", "value": "> 40 µM (active)"},
      {"measurement": "AC50", "setting": "Caspase-7", "value": "> 70 µM (inactive)"},
      {"measurement": "AC50", "setting": "Caspase-8", "value": "28.1 µM (active)"},
      {"measurement": "IC50", "setting": "Protein Tat", "value": "> 100 µM (active)"}
    ]},
    {"smiles": "COc1cccc(C(=O)N2CCN(C(=O)COc3ccc4ccccc4c3)CC2)c1", "values": [
      {"measurement": "IC50", "setting": "Beta-galactosidase", "value": "> 80 µM (inactive)"}
    ]},
    {"smiles": "NC(CCc1ccccc1)c1csc(Nc2ccc(C(=O)c3ccccc3)cc2)n1", "note": "(stereo not given)", "values": [
      {"measurement": "AC50", "setting": "[3]", "value": "27.7 µM (active)"},
      {"measurement": "EC50", "setting": "Melanocortin receptor 4", "value": "> 89.2 µM (inactive)"}
    ]},
    {"smiles": "COc1cc([N+](=O)[O-])cc(/C=N/NC(=O)c2cc(C)nc3ccccc23)c1O", "values": [
      {"measurement": "IC50", "setting": "Fatty acid synthase [4]", "value": "11.7 µM (active)"},
      {"measurement": "IC50", "setting": "Albumin", "value": "> 94.1 µM (inactive)"},
      {"measurement": "IC50", "setting": "Fatty acid synthase [5]", "value": "15.5 µM (active)"}
    ]},
    {"smiles": "CNC[C@@H]1Oc2cc(C#CC3CCCCC3)ccc2S(=O)(=O)N([C@@H](C)CO)C[C@@H]1C", "values": [
      {"measurement": "AC50", "setting": "[6]", "value": "1.39 µM (active)"},
      {"measurement": "AC50", "setting": "[7]", "value": "19.4 µM (active)"},
      {"measurement": "AC50", "setting": "Paired box protein Pax-8", "value": "25.3 µM (active)"}
    ]}
  ]
}
